{
  "source": "patent US20140315972A1",
  "about": "“RS)-2-(2-oxo-4-phenylpyrrolidin-1-yl)acetamide compound having modulatory activity with a commensurate effect, pharmaceutical substance (variants) and its application, composition (variants) thereof” (priority 2011, published 2014)",
  "key": {"[1]": {"assay": "Acute toxicity, single intraperitoneal injection in rats aged 30-35 days", "format": "in vivo", "conditions": "both sexes, white outbred, rat, in vivo, ip; rats 30-35 days; single i.p.", "description": "(§1) Tables 2, 2.1 and 2.2 present the results of acute toxicity studies of the Compounds with active substance content in at least white outbred male mice (body weight 18-24 g) and white outbred rats 30-35 days of age, of both sexes with a single dose. Calculation of toxic doses was made using the Wilcoxon and Litchfield method. Observations were made over 24 hours and 14 days after a single dose.\n(§2) LD50 in rat pups after intragastric administration was not found. Intragastric administration to rat pups of doses of more than 1000 mg/kg is technically impossible due to the small volume of the stomach (Table 2.2)."}, "rats [2]": {"tested_on": "rats", "assay": "Acute toxicity, single intraperitoneal injection in rats aged 30-35 days", "format": "in vivo", "description": "as §1, §2"}, "rats [3]": {"tested_on": "rats", "assay": "Hypotensive activity in rats (cannula in carotid artery)", "format": "in vivo", "conditions": "adult rats; i.p. and intragastric 50-100 mg/kg; one hour after administration", "description": "Study of the effect of Phenotropil on cerebral blood flow, systemic blood pressure (BP) and the nervous regulation of blood circulation was made on 6 anesthetized cats under general anesthesia (urethane+chloralose). Phenotropil was administered intravenously at a dose of 50 mg/kg with distilled water; the baseline state of each animal prior to drug administration served as control. Cerebral blood flow was recorded in the common carotid artery (CCA) by an electromagnetic meter. The nervous regulation of cerebral circulation was judged by the vasomotor pressor reflex (VPR). The results of the experiment show (Table 6.1) that the racemic compound causes a moderate increase in cerebral blood flow in anesthetized animals. The cerebrovascular effect is accompanied by vascular hypotension with manifestation of oppression of the vasomotor reflex. The biphasic behaviour of SBP is consistent with the pattern of the effect on TSIP under no abnormalities with stabilization of the normotonic state. At intraperitoneal and intragastric administration of Phenotropil (25-300 mg/kg) to white outbred adult rats of both sexes, hypotensive activity (by blood method through the cannula connected to the carotid artery) was manifested one hour after administration at doses of 50-100 mg/kg and was in average 13%±2.85, while with increasing doses this effect disappears. […]"}, "[4]": {"tested_on": "GABAA benzodiazepine (BDZ) receptors (cortex)", "assay": "Receptor binding ex vivo on rat brain membrane preparations", "conditions": "100 mg/kg single dose during scopolamine amnesia", "description": "(§3) Studying the mechanisms of action of the preventive and curative effect of Phenotropil (100 mg/kg) with single and subchronic administration (for 7 days) in terms of receptor binding to dopamine (D1, D2, D3 in the striatum), serotonin (5-HT2—frontal cortex) glutamate (NMDA in the hippocampus), the GABAA benzodiazepine (BDZ—cortex) and acetylcholine (nACh—cortex) receptors was performed on membrane preparations isolated from various competent rat brain structures. The methods are well known and described. Baseline studies in normal state and during the anticholinergic scopolamine induced CRPA amnesia served as the comparison groups (Table 7.4 and 7.5)."}, "[5]": {"tested_on": "acetylcholine nACh receptors (cortex)", "assay": "Receptor binding ex vivo on rat brain membrane preparations", "description": "as §3"}, "[6]": {"tested_on": "glutamate NMDA receptors (hippocampus)", "assay": "Receptor binding ex vivo on rat brain membrane preparations", "description": "as §3"}, "[7]": {"tested_on": "serotonin 5-HT2 receptors (frontal cortex)", "assay": "Receptor binding ex vivo on rat brain membrane preparations", "description": "as §3"}, "mice": {"tested_on": "mice", "assay": "Maximum life span (MLS) of mice", "format": "in vivo", "conditions": "for The maximum life span (number of days in %): mice, change vs untreated control = 100", "description": "The maximum life span (MLS) of mice according to our long-term statistical observations is 2.7-3, 2 years, i.e. in average 2.95 years or 1077 days. For this study we selected mice (10 individuals per group), males with dominant behavior in mixed groups, that safely survived to 985 days without signs of pronounced senility and with satisfactory orientation-exploratory behavior, determined by the “open field test” method. Phenotropil in doses of 25, 50 and 100 mg/kg was administered orally with 5.0% glucose solution. Glucose solution was used solely to improve the solubility of the drug. One control group received the glucose solution and the second one—distilled water. The third control group was not treated."}, "[8]": {"assay": "Daily diuresis in non-obese humans", "format": "in vivo, human", "conditions": "for Daily urine volume (ml/day, %): adult humans, background (not treated) = 100", "description": "The effect of Phenotropil (25, 50 and 100 mg in the morning) on diuresis was investigated in non-obese groups (males and females 23-47 years) for 10 days. The daily volume of urine when treated with placebo and Phenotropil was recorded."}, "[9]": {"conditions": "100 mg/kg after scopolamine-induced CRPA amnesia"}, "[10]": {"conditions": "nACh cortex, 100 mg/kg single dose during scopolamine amnesia"}, "[11]": {"conditions": "NMDA hippocampus, 100 mg/kg single dose during scopolamine amnesia"}, "[12]": {"conditions": "5-HT2 frontal cortex, 100 mg/kg single dose during scopolamine amnesia"}},
  "note": "Marks after values point to notes of the source that are not given here.",
  "data": [
    {"smiles": "NC(=O)CN1CC(c2ccccc2)CC1=O", "note": "(racemic) [Compound 1, (RS)-2-(2-oxo-4-phenylpyrrolidine-1-yl)acetamide]", "values": [
      {"measurement": "LD50 at 14 days", "setting": "[1]", "result": 1030, "unit": "mg/kg"},
      {"measurement": "LD16", "setting": "rats [2]; rats 30-35 days, single i.p.", "result": "LD16 = 906.7 mg/kg"},
      {"measurement": "LD84", "setting": "rats [2]; rats 30-35 days, single i.p.", "result": "LD84 = 1159.0 mg/kg"},
      {"measurement": "Dead/total number", "setting": "rats [2]; rats 30-35 days, single i.p. 800 mg/kg", "result": "0/10"},
      {"measurement": "Dead/total number", "setting": "rats [2]; rats 30-35 days, single i.p. 1000 mg/kg", "result": "4/10"},
      {"measurement": "Dead/total number", "setting": "rats [2]; rats 30-35 days, single i.p. 1100 mg/kg", "result": "9/10"},
      {"measurement": "Dead/total number", "setting": "rats [2]; rats 30-35 days, single i.p. 1200 mg/kg", "result": "9/10"},
      {"measurement": "Dead/total number", "setting": "rats [2]; rats 30-35 days, single i.p. 1500 mg/kg", "result": "10/10"},
      {"measurement": "% of dead rat pups", "setting": "rats [2]; single i.p. 800 mg/kg", "result": 0, "unit": "%"},
      {"measurement": "% of dead rat pups", "setting": "rats [2]; single i.p. 1000 mg/kg", "result": 40, "unit": "%"},
      {"measurement": "% of dead rat pups", "setting": "rats [2]; single i.p. 1100 mg/kg", "result": 90, "unit": "%"},
      {"measurement": "% of dead rat pups", "setting": "rats [2]; single i.p. 1200 mg/kg", "result": 90, "unit": "%"},
      {"measurement": "% of dead rat pups", "setting": "rats [2]; single i.p. 1500 mg/kg", "result": 100, "unit": "%"},
      {"measurement": "hypotensive activity, average", "setting": "rats [3]", "result": "13%±2.85"},
      {"measurement": "Bmax change vs saline CRPA control", "setting": "[4]", "result": "+4%"},
      {"measurement": "Kd change vs saline CRPA control", "setting": "[4]", "result": "−3.8", "unit": "%"},
      {"measurement": "Kd change vs scopolamine amnesia group", "setting": "[4]", "result": "+9.3%"},
      {"measurement": "decrease in density of nACh receptors vs scopolamine amnesia", "setting": "[5]; [9]", "result": 46, "unit": "%"},
      {"measurement": "Bmax change vs saline CRPA control", "setting": "[5]; [10]", "result": "+6%"},
      {"measurement": "Bmax change vs scopolamine amnesia group", "setting": "[5]; [10]", "result": "−46", "unit": "%"},
      {"measurement": "Kd change vs saline CRPA control", "setting": "[5]; [10]", "result": "+39.5%"},
      {"measurement": "Kd change vs scopolamine amnesia group", "setting": "[5]; [10]", "result": "+14.4%"},
      {"measurement": "decrease in density of NMDA receptors vs scopolamine amnesia", "setting": "[6]; [9]", "result": 12, "unit": "%"},
      {"measurement": "Bmax change vs saline CRPA control", "setting": "[6]; [11]", "result": "+69%"},
      {"measurement": "Bmax change vs scopolamine amnesia group", "setting": "[6]; [11]", "result": "−12", "unit": "%"},
      {"measurement": "Kd change vs saline CRPA control", "setting": "[6]; [11]", "result": "+18.4%"},
      {"measurement": "Kd change vs scopolamine amnesia group", "setting": "[6]; [11]", "result": "+9.0%"},
      {"measurement": "Bmax, percentage relative to control", "setting": "[7]; 5-HT2, subchronic 100 mg/kg/day, no pathology", "result": "−18", "unit": "%*"},
      {"measurement": "Bmax change vs saline CRPA control", "setting": "[7]; [12]", "result": "+31%"},
      {"measurement": "Kd change vs saline CRPA control", "setting": "[7]; [12]", "result": "+19.4%"},
      {"measurement": "Kd change vs scopolamine amnesia group", "setting": "[7]; [12]", "result": "+3.0%"},
      {"measurement": "decrease of density (Bmax) of 5-HT2 receptors vs control", "setting": "[7]; subchronic 100 mg/kg, no pathology", "result": 18, "unit": "%"},
      {"measurement": "increase of maximum life span", "setting": "mice; 25 mg/kg", "result": 23.3, "unit": "%"},
      {"measurement": "increase of maximum life span", "setting": "mice; 100 mg/kg", "result": 24.0, "unit": "%"},
      {"measurement": "increase of life span, average of all experimental groups", "setting": "mice; male mice aged 985 days, 25, 50, 100 mg/kg orally", "result": 22.0, "unit": "%"},
      {"measurement": "The maximum life span (number of days in %)", "setting": "mice; 25 mg/kg + 5.0% glucose solution", "result": "+20.1 * %"},
      {"measurement": "The maximum life span (number of days in %)", "setting": "mice; 50 mg/kg + 5.0% glucose solution", "result": "+15.0 * %"},
      {"measurement": "The maximum life span (number of days in %)", "setting": "mice; 100 mg + 5.0% glucose solution", "result": "+20.8 * %"},
      {"measurement": "increase of daily urine output, average index", "setting": "[8]; 25, 50, 100 mg in the morning, first three days", "result": "30-37%"},
      {"measurement": "Daily urine volume (ml/day, %)", "setting": "[8]; 25 mg/day", "result": "130 * %"},
      {"measurement": "Daily urine volume (ml/day, %)", "setting": "[8]; 50 mg/day", "result": "137 * %"},
      {"measurement": "Daily urine volume (ml/day, %)", "setting": "[8]; 100 mg/day", "result": "137 * %"},
      {"measurement": "fluctuations in urine output", "setting": "[8]; next 7 days", "result": "5-10%"}
    ]}
  ]
}
